Patent US11401277B2, “Anti-bacterial heterocyclic compounds and their synthesis” (Bugworks Research, Inc., priority 2017, dated 2022)
In brackets after ≈: the same amount, converted by molar mass. Several values for one entry are separate records, joined by “and”; a condition that tells them apart may be missing. Identical values can stand only once.

Key:
E. coli clinical strains = test: Susceptibility (MIC50 and MIC90 determination) studies, clinical strains; format: cell-based; conditions: CLSI
[1] = tested on: A. baumanni clinical strains; test: as above; format: cell-based; conditions: CLSI
[2] = tested on: K. pneumoniae clinical strains; test: as above; format: cell-based; conditions: CLSI
[3] = tested on: P. aurigenosa clinical strains; test: as above; format: cell-based; conditions: CLSI
[4] = tested on: E. cloacae clinical strains; test: as above; format: cell-based; conditions: CLSI
[5] = tested on: P. aeruginosa [ATCC27853]; test: Neutropenic Lung Infection Model in Rat; format: in vivo; conditions: 30 mg/kg, i.v. bolus
Description: Animals were placed into an induction chamber and anaesthesia was induced by exposing the animals to 3-5% Isoflurane in an oxygen flow set at approximately (˜) 1 liter per minute (LPM). […] A gentle mixing of inoculum between two animals was followed for uniform distribution.
Meropenem was formulated in saline.
Entire Lung was aseptically isolated, weighed and placed into 1 mL of sterile CSDB broth, and homogenized (Omni Tip (220 V hand held)). Serial ten-fold dilutions of the lungs homogenates were prepared in sterile CSD broth and 0.05 mL of four dilutions for each tissue was plated onto CSDA agar plates. Bacterial colonies were enumerated following overnight incubation at 37° C. Bacterial densities were estimated as Log10 CFU/g lung. The Mean±SD Log10 CFU/g lung was estimated in each group.

E. coli [ATCC25922] = test: Urinary Tract Infection Rat Model (kidneys, bladder); conditions: 30 mg/kg, i.v. bolus
[6] = Escherichia coli, E. coli clinical strains
[7] = Klebsiella pneumoniae, Kpn clinical strains
[8] = individual animals, 24 h post infection

Minimum (MIC) (E. coli clinical strains; E. coli clinical strains, MIC50/MIC90 in μg/ml): 0.03 µg/mL
MIC ATCC25922 (E. coli clinical strains; E. coli reference strain ATCC25922, MIC50/MIC90 in μg/ml): 0.06 µg/mL (≈ 0.156 µM)
MIC50 (E. coli clinical strains; [6]): 0.06 µg/mL (≈ 0.156 µM)
MIC90 (E. coli clinical strains; [6]): 4 µg/mL (≈ 10.4 µM)
MIC50 ([1]; Aba clinical strains): 8 µg/mL (≈ 20.9 µM)
MIC90 ([1]; Aba clinical strains): 32 µg/mL (≈ 83.4 µM)
Minimum (MIC) ([1]; Aba clinical strains, MIC50/MIC90 in μg/ml, in µg/mL): 0.03125
MIC ATCC19606 ([1]; Aba reference strain ATCC19606, MIC50/MIC90 in μg/ml): 0.5 µg/mL (≈ 1.3 µM)
MIC50 [2, 7]: 1 µg/mL (≈ 2.61 µM)
MIC90 [2, 7]: 16 µg/mL (≈ 41.7 µM)
Minimum (MIC) ([2]; Kpn clinical strains, MIC50/MIC90 in μg/ml): 0.03 µg/mL
MIC ATCC13883 ([2]; Kpn reference strain ATCC13883, MIC50/MIC90 in μg/ml): 0.06 µg/mL (≈ 0.156 µM)
MIC50 ([3]; Pae clinical strains): 2 µg/mL (≈ 5.22 µM)
MIC90 ([3]; Pae clinical strains): 8 µg/mL (≈ 20.9 µM)
Minimum (MIC) ([3]; Pae clinical strains, MIC50/MIC90 in μg/ml): 0.03 µg/mL
MIC ATCC27853 ([3]; Pae reference strain ATCC27853, MIC50/MIC90 in μg/ml): 0.5 µg/mL (≈ 1.3 µM)
Minimum (MIC) ([4]; MIC50/MIC90 in μg/ml): 0.06 µg/mL
MIC50 ([4]; Enterobacter cloacae): 0.25 µg/mL (≈ 0.652 µM)
MIC90 ([4]; Enterobacter cloacae): 16 µg/mL (≈ 41.7 µM)
SMILES: C[C@@H](O)[C@H]1C(=O)N2C(C(=O)O)=C(S[C@@H]3CN[C@H](C(=O)N(C)C)C3)[C@H](C)[C@H]12 [Meropenem, meropenem, reference compound]
MEAN ± SD (Log10 CFU/g Lung) [5]: 5.43 ± 0.14 Log10 CFU/g Lung
Mean Log 10 CFU/g lung reduction (wrt 4 h PI control: 6.52 Log10CFU/g lung) [5]: 1.09 Log 10 CFU/g lung
Log10 CFU/g Lung [5, 8]: 5.35 Log10 CFU/g Lung and 5.36 Log10 CFU/g Lung and 5.59 Log10 CFU/g Lung
MEAN ± SD (Log10 CFU/g kidneys) (E. coli [ATCC25922]): 3.83 ± 0.27 Log10 CFU/g kidneys
MEAN ± SD (Log10 CFU/ml Bladder) (E. coli [ATCC25922]): 4.69 ± 0.32 Log10 CFU/ml Bladder
Mean Log10CFU/g kidney reduction (wrt 4 h PI control: 4.53 Log10CFU/g kidneys) (E. coli [ATCC25922]): 0.70 Log10CFU/g kidney
Mean Log10 CFU/ml Bladder reduction (wrt 4 h PI control: 5.72 CFU/ml Bladder) (E. coli [ATCC25922]): 1.03 Log10 CFU/ml Bladder
Log10 CFU/g (Left Kidney) (E. coli [ATCC25922]; [8]): 3.61 Log10 CFU/g and 3.92 Log10 CFU/g and 4.06 Log10 CFU/g
Log10 CFU/g (Right Kidney) (E. coli [ATCC25922]; [8]): 3.41 Log10 CFU/g and 4.12 Log10 CFU/g and 3.87 Log10 CFU/g
Log10 CFU/ml Bladder (E. coli [ATCC25922]; [8]): 4.87 Log10 CFU/ml Bladder and 4.33 Log10 CFU/ml Bladder and 4.89 Log10 CFU/ml Bladder
